# From ChEMBL document CHEMBL1128276, “Quinazoline antifolate thymidylate synthase inhibitors: replacement of glutamic acid in the C2-methyl series” (J Med Chem, 1995)
# pIC50: −log10 of the molar value.
# Key:
# L1210 [1] = assay: Inhibition of L1210 cell growth; type: functional, cell-based; conditions: Mus musculus
# L1210 (1565) [2] = assay: Concentration to inhibit cell growth was measured on L1210:1565 cell line; type: functional, cell-based; conditions: Mus musculus
# L1210 (1565) [3] = assay: Relative resistance was measured in L1210:1565 cell line; type: functional, cell-based; conditions: Mus musculus
# Thymidylate synthase [4] = target: T1, Thymidylate synthase (Mus musculus, UniProt P07607); assay: Ability to inhibit Thymidylate synthase purified from mouse L1210 leukemia cells that overproduce thymidylate synthase (TS)
# T1 sequence (P07607 whole entry): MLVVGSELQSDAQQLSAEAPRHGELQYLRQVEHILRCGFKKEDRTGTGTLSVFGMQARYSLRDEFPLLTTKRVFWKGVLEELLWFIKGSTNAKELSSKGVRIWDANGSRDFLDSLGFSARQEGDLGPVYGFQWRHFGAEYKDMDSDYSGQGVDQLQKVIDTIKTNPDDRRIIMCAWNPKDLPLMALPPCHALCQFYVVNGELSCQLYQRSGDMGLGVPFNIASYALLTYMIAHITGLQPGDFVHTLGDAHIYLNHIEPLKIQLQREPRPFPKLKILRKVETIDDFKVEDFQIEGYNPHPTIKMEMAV
# L1210 [5] = assay: Ability to inhibit cell growth was measured on L1210 cells(horse serum); type: functional, cell-based; conditions: Mus musculus
# Thymidylate synthase [6] = target: T1, Thymidylate synthase; assay: Inhibition of thymidylate synthase purified from mouse L1210 leukemia cells that overproduce thymidylate synthase (TS); type: cell-free
Structure (SMILES),pIC50 (L1210 [1]),pIC50 (L1210 (1565) [2]),Relative resistance (L1210 (1565) [3]),pIC50 (Thymidylate synthase [4]),pIC50 (L1210 [5]),pIC50 (Thymidylate synthase [6])
C#CCN(Cc1cc2c(O)nc(C)nc2cc1C)c1ccc(C(=O)NCc2cccc(C#N)c2)c(F)c1,6.64,7.05,0.38 dimensionless ratio,7.32,,
C#CCN(Cc1ccc2nc(C)nc(O)c2c1)c1ccc(C(=O)NCc2ccco2)cc1,,,,,5.22,5.85
C#CCN(Cc1ccc2nc(C)nc(O)c2c1)c1ccc(C(=O)NCCC)cc1,5.07,,,,,5.65
C#CCN(Cc1ccc2nc(C)nc(O)c2c1)c1ccc(C(=O)N[C@@H](C(=O)O)c2ccc(F)cc2)cc1,4.13,,,7.05,,
C#CCN(Cc1ccc2nc(C)nc(O)c2c1)c1ccc(C(=O)NCc2ccccc2[N+](=O)[O-])cc1,,5.12,4.2 dimensionless ratio,,5.74,6.49
C#CCN(Cc1cc2c(O)nc(C)nc2cc1C)c1ccc(C(=O)NCc2cncs2)c(F)c1,6.21,6.62,0.39 dimensionless ratio,6.96,,
C#CCN(Cc1ccc2nc(C)nc(O)c2c1)c1ccc(C(=O)N[C@H](C)C(=O)O)cc1,4.60,,,,,6.82
C#CCN(Cc1ccc2nc(C)nc(O)c2c1)c1ccc(C(=O)N[C@H](CCC(N)=O)C(=O)O)cc1,5.66,4.40,,,,
C#CCN(Cc1ccc2nc(C)nc(O)c2c1)c1ccc(C(=O)N[C@@H](C(=O)O)c2ccccc2)cc1,4.82,4.52,2 dimensionless ratio,,,7.47
C#CCN(Cc1ccc2nc(C)nc(O)c2c1)c1ccc(C(=O)NCc2nccs2)cc1,5.22,5.30,0.83 dimensionless ratio,6.12,,
C#CCN(Cc1ccc2nc(C)nc(O)c2c1)c1ccc(C(=O)N[C@@H](C(=O)O)C(C)C)cc1,6.02,4.64,23 dimensionless ratio,,,7.24
C#CCN(Cc1ccc2nc(C)nc(O)c2c1)c1ccc(C(=O)NCc2cccc(C#N)c2)cc1,,6.30,0.33 dimensionless ratio,,5.82,6.55
C#CCN(Cc1cc2c(O)nc(C)nc2cc1C)c1ccc(C(=O)NCc2nccs2)c(F)c1,6.18,6.30,0.76 dimensionless ratio,7.00,,
C#CCN(Cc1cc2c(O)nc(C)nc2cc1C)c1ccc(C(=O)NCc2cccc([N+](=O)[O-])c2)c(F)c1,6.68,6.74,0.86 dimensionless ratio,,,7.36
C#CCN(Cc1ccc2nc(C)nc(O)c2c1)c1ccc(C(=O)N[C@H](Cc2ccc([N+](=O)[O-])cc2)C(=O)O)cc1,< 4.70,,,,,7.38
C#CCN(Cc1ccc2nc(C)nc(O)c2c1)c1ccc(C(=O)NCc2ccc(Cl)cc2)cc1,,,,,4.15,5.11
C#CCN(Cc1ccc2nc(C)nc(O)c2c1)c1ccc(C(=O)NCc2cscn2)cc1,5.10,5.32,0.6 dimensionless ratio,5.76,,
C#CCN(Cc1ccc2nc(C)nc(O)c2c1)c1ccc(C(=O)NCc2nc(C)cs2)cc1,5.77,5.80,0.91 dimensionless ratio,6.11,,
C#CCN(Cc1cc2c(O)nc(C)nc2cc1C)c1ccc(C(=O)N[C@H](CCC(=O)O)C(=O)O)c(F)c1,7.10,5.23,74 dimensionless ratio,,,8.05
C#CCN(Cc1ccc2nc(C)nc(O)c2c1)c1ccc(C(=O)N[C@H](Cc2ccccc2)C(=O)O)cc1,4.39,,,,,6.77
C#CCN(Cc1ccc2nc(C)nc(O)c2c1)c1ccc(C(=O)Nc2ccccc2)cc1,4.96,,,,,5.74

Structure (SMILES),pIC50 (L1210 [1]),pIC50 (L1210 (1565) [2]),Relative resistance (L1210 (1565) [3]),pIC50 (Thymidylate synthase [4]),pIC50 (L1210 [5]),pIC50 (Thymidylate synthase [6])
C#CCN(Cc1cc2c(O)nc(C)nc2cc1C)c1ccc(C(=O)N[C@@H](C(=O)O)c2cccc([N+](=O)[O-])c2)c(F)c1,5.61,5.90,0.51 dimensionless ratio,,,8.36
C#CCN(Cc1ccc2nc(C)nc(O)c2c1)c1ccc(C(=O)NCC)cc1,5.14,,,,,4.64
C#CCN(Cc1ccc2nc(C)nc(O)c2c1)c1ccc(C(=O)NCc2ccsc2)cc1,5.26,,,,,5.84
C#CCN(Cc1ccc2nc(C)nc(O)c2c1)c1ccc(C(=O)NCc2cccc([N+](=O)[O-])c2)cc1,,6.40,0.37 dimensionless ratio,,5.92,6.96
C#CCN(Cc1ccc2nc(C)nc(O)c2c1)c1ccc(C(=O)NCc2ccccn2)cc1,,5.30,1.28 dimensionless ratio,,5.41,6.35
C#CCN(Cc1cc2c(O)nc(C)nc2cc1C)c1ccc(C(=O)N[C@@H](C(=O)O)C(C)(C)C)c(F)c1,6.06,5.28,6 dimensionless ratio,8.15,,
C#CCN(Cc1ccc2nc(C)nc(O)c2c1)c1ccc(C(=O)NCc2cncs2)cc1,5.96,6.40,0.36 dimensionless ratio,,,6.07
C#CCN(Cc1ccc2nc(C)nc(O)c2c1)c1ccc(C(=O)NC)cc1,4.60,,,,,5.38
C#CCN(Cc1ccc2nc(C)nc(O)c2c1)c1ccc(C(=O)NCC(=O)O)cc1,< 4.00,,,,,6.28
C#CCN(Cc1ccc2nc(C)nc(O)c2c1)c1ccc(C(=O)NCc2ccoc2)cc1,5.26,,,,,5.86
C#CCN(Cc1cc2c(O)nc(C)nc2cc1C)c1ccc(C(=O)NCc2ccccn2)c(F)c1,6.21,6.28,0.84 dimensionless ratio,6.94,,
C#CCN(Cc1ccc2nc(C)nc(O)c2c1)c1ccc(C(=O)N[C@@H](C(=O)O)c2cccc([N+](=O)[O-])c2)cc1,5.05,4.89,1.4 dimensionless ratio,,,7.62
C#CCN(Cc1ccc2nc(C)nc(O)c2c1)c1ccc(C(=O)N[C@@H](C(=O)O)c2cccc(O)c2)cc1,4.05,,,6.80,,
C#CCN(Cc1ccc2nc(C)nc(O)c2c1)c1ccc(C(=O)N[C@@H](C(=O)O)C(C)(C)C)cc1,5.70,4.85,7 dimensionless ratio,,,7.24
C#CCN(Cc1ccc2nc(C)nc(O)c2c1)c1ccc(C(=O)N[C@H](CCC(=O)O)C(=O)O)cc1,7.05,5.09,,,,
C#CCN(Cc1cc2c(O)nc(C)nc2cc1C)c1ccc(C(=O)N[C@@H](C(=O)O)C(C)C)c(F)c1,5.77,5.54,1.71 dimensionless ratio,8.22,,
C#CCN(Cc1ccc2nc(C)nc(O)c2c1)c1ccc(C(=O)NCc2ccc([N+](=O)[O-])cc2)cc1,,,,,5.66,6.49
C#CCN(Cc1ccc2nc(C)nc(O)c2c1)c1ccc(C(=O)N[C@H](CCC)C(=O)O)cc1,5.60,4.47,,,,
C#CCN(Cc1ccc2nc(C)nc(O)c2c1)c1ccc(C(=O)NCc2ccccc2)cc1,5.40,,,,,6.14
C#CCN(Cc1ccc2nc(C)nc(O)c2c1)c1ccc(C(=O)NCc2cccc(C(=O)O)c2)cc1,,,,,4.07,6.57
